This assay deals with Endoplasmic reticulum aminopeptidase 1 (Homo sapiens) (UniProt Q9NZ08). Kind of assay: ERAP1 Leu-AMC hydrolysis inhibition – biochemical, fluorescence, dry powder, set 2, dose response (AID 1117287). Particulars: 60 min.

Activity calls are given as the source filed them.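 The calls were made as follows: active = inhibitor whose half-maximal potency stays within twice the top tested dose in every replicate test; inconclusive = mixed calls across tests, weak flat response, or poor curve fit; inactive = all tests inactive, including rising signal.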

Endoplasmic reticulum aminopeptidase 1 (Homo sapiens), sequence (Q9NZ08 whole entry, looked up): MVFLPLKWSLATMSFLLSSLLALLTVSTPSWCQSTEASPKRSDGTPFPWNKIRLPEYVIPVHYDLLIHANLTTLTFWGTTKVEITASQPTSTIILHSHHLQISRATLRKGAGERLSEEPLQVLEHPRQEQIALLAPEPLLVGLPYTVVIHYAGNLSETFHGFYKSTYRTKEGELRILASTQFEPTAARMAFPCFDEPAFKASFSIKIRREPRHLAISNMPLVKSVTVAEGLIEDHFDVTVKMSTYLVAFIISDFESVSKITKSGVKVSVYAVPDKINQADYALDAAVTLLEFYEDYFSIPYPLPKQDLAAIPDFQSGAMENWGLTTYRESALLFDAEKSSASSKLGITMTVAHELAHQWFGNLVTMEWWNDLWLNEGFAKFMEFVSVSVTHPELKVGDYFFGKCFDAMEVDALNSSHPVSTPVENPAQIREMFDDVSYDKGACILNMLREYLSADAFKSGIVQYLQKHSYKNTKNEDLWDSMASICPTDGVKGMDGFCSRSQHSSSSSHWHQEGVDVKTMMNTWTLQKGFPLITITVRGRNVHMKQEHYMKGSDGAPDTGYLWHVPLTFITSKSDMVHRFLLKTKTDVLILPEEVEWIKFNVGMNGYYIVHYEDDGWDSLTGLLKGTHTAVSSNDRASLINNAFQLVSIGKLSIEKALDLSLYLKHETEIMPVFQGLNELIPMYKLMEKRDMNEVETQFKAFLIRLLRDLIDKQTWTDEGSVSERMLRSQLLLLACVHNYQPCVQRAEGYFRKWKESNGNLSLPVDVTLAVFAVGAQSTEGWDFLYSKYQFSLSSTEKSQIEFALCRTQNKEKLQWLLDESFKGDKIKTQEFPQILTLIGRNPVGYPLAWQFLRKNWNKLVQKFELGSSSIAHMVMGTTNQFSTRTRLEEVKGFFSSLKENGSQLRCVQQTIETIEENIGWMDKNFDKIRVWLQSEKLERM

Take `Cc1ccc(S(=O)(=O)Nc2cc(C(F)(F)F)ccc2N2CCCCC2)cc1C(=O)O`: the “activity change, negative = inhibition” value (at 50 µM (top of the series)) was “inactive”.

For `O=S(=O)(O)c1ccc(N2N=C(c3ccccc3)CC2c2ccccc2)cc1` (stereo not drawn), the “activity change, negative = inhibition” value (at 26 µM (top of the series)) is “inactive”. Regarding `COc1ccc(C(=O)O)cc1S(=O)(=O)Nc1cc(C(F)(F)F)ccc1N(C)C`, for the setting “at 50 µM (top of the series)”, the “activity change, negative = inhibition” value was “inactive”. As usually defined, the AC50 is the concentration at which the activity in the assay is half-maximal. For the compound `COc1ccc(C(=O)O)cc1S(=O)(=O)Nc1cccc(N2CCCCC2)c1C(F)(F)F`, the AC50 was > 100 µM (inactive). In the case of `COc1ccc(C(=O)O)cc1S(=O)(=O)N1CCN(c2ccc(C(F)(F)F)cc2N)CC1`, the AC50 was > 100 µM (inactive).

As to `O=C(O)c1cc(F)cc(S(=O)(=O)Nc2cc(C(F)(F)F)ccc2N2CCCCC2)c1`, the “activity change, negative = inhibition” value (at 50 µM (top of the series)) is “inactive”. Same read-out and setting: with `COc1ccc(C(=O)O)cc1S(=O)(=O)Nc1cc(C(F)(F)F)ccc1N1CCN(C(C)=O)CC1` the entry was “inactive”; with `COc1ccc(C(=O)O)cc1S(=O)(=O)Nc1cc(C(F)(F)F)ccc1N1CCCCC1`, “inactive”; with `COc1ccc(C(=O)O)cc1S(=O)(=O)Nc1cc(C(F)(F)F)ccc1N1CCOCC1`, “inactive”. `COc1ccc(C(=O)O)cc1S(=O)(=O)Nc1ccc(N2CCCCC2)cc1C(F)(F)F`: the AC50 was > 100 µM (inactive).

Consider `COc1ccc(C2=NN(c3ccc(C(=O)O)cc3)C(c3ccc(OC)c(OC)c3)C2)cc1` (stereo not drawn), for which the “activity change, negative = inhibition” value (at 26 µM (top of the series), above what the read-out allows, likely interference) is “inactive”. As to `Cc1ccc(C(=O)O)cc1S(=O)(=O)Nc1cc(C(F)(F)F)ccc1N1CCCCC1`, the “activity change, negative = inhibition” value (at 50 µM (top of the series)) is “inactive”. The same measure, in the same setting: then `COc1ccc(C(=O)Nc2cccc(C(F)(F)F)c2)cc1S(=O)(=O)O`, with “inactive”.

The values above are taken from PubChem BioAssay AID1117287 (Broad Institute, 2014).
